Data on three compounds can be found in patent US9498548B2, “Method of using oxidative reductive potential water solution in dental applications” (priority 2005, dated 2016).

In data set [1] the test system is human diploid fibroblasts (HDFs). Briefly: Cell viability, apoptosis and necrosis by flow cytometry. The note with it: 880 mM. The data set is classed as cell-based. The method, then:
HP is known to be toxic to eukaryotic cells, increasing apoptosis and necrosis and reducing cellular viability. […] HDF cultures were obtained from three different foreskins, which were pooled and cryopreserved together for the purpose of this study. Only diploid cells were used for all experiments. […] Simultaneous analyses of these parameters were performed in the same cell populations by flow cytometry using: […] FIG. 4B) Annexin V-FITC and FIG. 4C) Propidium iodide. FIGS. 8A-8C disclose percentage values expressed as mean±SD (n=3).

Data set [2] relates to HDFs. To be noted: human, 1 month, 5 µM.
Data set [3] can be described thus: Root canal treatment study (irrigation and oral rinses). To be noted: ORP water solution 109 pts; 2.5% SH 129 pts. The data set is classed as in vivo, patients. The text has this: Acute root canal was defined as an X-ray image showing a periapical lesion in addition to negative vitality and positive percussion clinical tests. Retrospective analysis of paired-cases presenting similar root canal infections between 2002 and 2003 at the same Institution was undertaken for the control group (the “SH” group) (see FIGS. 7A-B).
During the process the ducts were isolated to avoid contamination. The cavity was opened and the root drilled. ORP water solution flush started with the drilling process instead of using water or saline solution. Instrumentation was conducted according to the crown down technique using rotatory NiTi instruments. Instrumentation was done according to the extension of the duct as measured by the X ray. Duct irrigation was conducted with the ORP water solution after using each instrument. […] The duct was dried out with dental paper and occlusion done by lateral condensation with calcium hydroxide and epoxy resin. […] After 30 days, oral rinse once daily indefinitely was recommended.
A standard art-known treatment procedure with sodium hypochlorite (SH) was conducted for root canal treatment in control patients. Particular care was paid to avoid infiltration of the solution to the periapical region during the manipulation. All patients in the control group received ampicilin (500 mg tid) or cephalexin (500 mg bid) for 7 days as well as anti-inflammatory drugs (naproxen 500 mg bid) as necessary.
The demographic characteristics were similar for both groups (FIGS. 7 A & B).

Data set [4] concerns murine polychromatic erythrocytes. To be noted: for PCE/NCE ratio: bone marrow, cyclophosphamide 8 mg/mL, 12.5 ml/kg i.p. day 2. The protocol:
The mammalian in vivo micronucleus test is used for the identification of substances which cause damage to chromosomes or the mitotic apparatus of murine polychromatic erythrocytes. This damage results in the formation of “micronuclei,” intracellular structures containing lagging chromosome fragments or isolated whole chromosomes. […] The positive control mice received a single intraperitoneal injection of cyclophosphamide (8 mg/mL, 12.5 ml/kg) on day 2. All mice were observed immediately after injection for any adverse reactions. […] On day 3, all mice were weighed and terminated.
The femurs were excised from the terminated mice, the bone marrow was extracted, and duplicate smear preparations were performed for each mouse. The bone marrow slides for each animal were read at 40× magnification. The ratio of polychromatic erythrocytes (PCE) to normochromatic erythrocytes (NCE), an index of bone marrow toxicity, was determined for each mouse by counting a total of at least 200 erythrocytes. Then a minimum of 2000 scoreable PCE per mouse were evaluated for the incidence of micronucleated polychromatic erythrocytes. Statistical analysis of the data were done using the Mann and Whitney test (at 5% risk threshold) from a statistical software package (Statview 5.0, SAS Institute Inc., USA).

Where two headings read alike, the source gives them in different places.

For the compound `OO` [HP, hydrogen peroxide], the Cell viability in data set [1] (5 min) worked out at 55%; in data set [1] (30 min) it was 5%. For the same compound, the “cells with increased SA-β-Gal expression” value in data set [2] came out at 86%.
Turning to `[Na+].[O-]Cl` [2.5% SH, sodium hypochlorite], in data set [3], the dental losses result is listed as “Dental losses only occurred in the SH control group”, the “patients with an acute local reaction after root canal treatment” value is 16 patients and the “total number of affected teeth” value is 23.
Take `O=P1(N(CCCl)CCCl)NCCCO1` (stereo not drawn) [cyclophosphamide]: the PCE/NCE ratio came to 0.73 in data set [4] (females) and 0.77 in data set [4] (males). Besides, the “number of polychromatic erythrocytes bearing micronuclei” value in data set [4] (males, minimum of 2000 PCE per mouse evaluated) stood at 11.0.
